The values below are quoted from earlier work in patent publication US12208072B2, “Compositions for removing necrotic or infected tissues from body surface lesions and from oral cavity” (DEBx Medical Holding B.V., priority 2019, dated 2025).

The pKa is the negative logarithm of the acid dissociation constant.

The conditions of series [1]: for Ka1: first dissociation constant; for Ka2: second dissociation constant.
For series [2] the following is noted: 25° C.

Regarding `OCl` [Hypochlorous], the Ka1 in series [1] was 3.0 × 10^−8. Take `O=[N+]([O-])O` [Nitric]: in series [2], the pKa is −1.4. In the case of `O=C(O)CC(O)C(=O)O` (stereo not drawn) [Malic], in series [1], the Ka1 was 3.48 × 10^−4 and the Ka2 is reported as 8.00 × 10^−6. In the case of `OP(O)O` [Phosphorous], in series [1], the Ka1 is recorded as 3 × 10^−2 and the Ka2 is 1.62 × 10^−7. Anilinium ion: the Ka1 in series [1] is 2.50 × 10^−5.

Take `O=C(O)CCC(=O)O` [Succinic]: in series [1], the Ka1 is 6.21 × 10^−5 and the Ka2 is 2.31 × 10^−6. As for `O=C(O)O` [Carbonic], in series [1], the Ka1 is on record as 4.44 × 10^−7 and the Ka2 was 4.69 × 10^−11. Turning to `OB(O)O` [Boric], in series [1], the Ka1 was 5.81 × 10^−10.
